Source: US11026942B2, “Agent for preventing and/or treating Alzheimer's disease” (KYOTO UNIVERSITY, priority 2015, dated 2021)

How the values were obtained:
Assay type in all cases: cell-based, human
Aβ38 = Aβ38 in FAD1 iPS cell-derived nerve cells (secondary screening); set-up: scale not given here
Method: (§1) To further study reproducibility of the candidate drugs obtained by the primary screening, secondary screening was conducted. In addition to Aβ40, Aβ42, Aβ42/40 ratio, Aβ38, Aβ43, sAPPα, sAPPβ were also studied and each numerical value was obtained.

Aβ42/40 ratio = Aβ42/40 ratio in FAD1 iPS cell-derived nerve cells (primary/secondary screening, dose dependency); conditions: secondary screening
Excerpt: (§2) To perform induction from iPS cells to the cerebral cortex nerve early and with high reproducibility, iPS cells introduced with human Neurogenin 2 gene (NGN2) linked to doxycycline-inducible promoter by using PiggyBac were used (FIG. 1a, FIG. 1b, FIG. 4a and FIG. 4b). IPS cells prepared from 4 patients with familial Alzheimer's disease (FAD), 2 patients with sporadic Alzheimer's disease (SAD) and 4 healthy individuals (HC) were used. The iPS cells were established by the method described in Okita K et al., Nature.
(§3) Structural formulas (those in the form of salt or halide are also described as free form) and the general names of the candidate compounds are shown in Table 1.
as §1

sAPPα = sAPPα in FAD1 iPS cell-derived nerve cells (secondary screening); set-up: scale not given here; conditions: secondary screening, FAD1 iPS cell-derived nerve cells
Method: as §1

Aβ42 = Aβ42 in FAD1 iPS cell-derived nerve cells (primary/secondary screening, dose dependency); conditions: secondary screening, FAD1 iPS cell-derived nerve cells, numerical value (Aβ change rate)
Excerpt: as §2, §3, §1

Aβ43 = Aβ43 in FAD1 iPS cell-derived nerve cells (secondary screening); set-up: scale not given here
Method: as §1

sAPPβ = sAPPβ in FAD1 iPS cell-derived nerve cells (secondary screening); set-up: sAPPβ: scale not given here; conditions: secondary screening, FAD1 iPS cell-derived nerve cells
Method: as §1

Row | SMILES | Aβ38 (Aβ38) | Ratio Aβ42/40 (Aβ42/40 ratio) | sAPPα (sAPPα) | Aβ42 (Aβ42) | Aβ43 (Aβ43) | sAPPβ (sAPPβ)
1 | COc1cc(NC(C)CCCN)c2ncccc2c1 (stereo not drawn) [compound 77, PRIMAQUINE] | 1.07 | 0.95 | 0.79 | 0.87 | 0.89 | 0.85
2 | CC(C)(C)NC[C@H](O)c1ccc(O)c(CO)c1 [compound 73, LEVALBUTEROL] | 0.99 | 0.92 | 0.74 | 0.84 | 0.91 | 0.66
3 | CC1(C)O[C@@H]2[C@@H](CO[C@@]3(COS(N)(=O)=O)OC(C)(C)O[C@@H]23)O1 [compound 100, TOPIRAMATE] | 0.9 | 0.92 | 0.81 | 0.79 | 1.02 | 0.78
4 | C=CCSCC1Nc2cc(Cl)c(S(N)(=O)=O)cc2S(=O)(=O)N1 (stereo not drawn) [compound 117, ALTHIAZIDE] | 1.03 | 0.91 | 0.92 | 0.81 | 0.91 | 0.7
5 | Oc1ccc(Cl)cc1Cc1cc(Cl)ccc1O [compound 94, DICHLOROPHENE] | 0.94 | 0.89 | 0.78 | 0.79 | 0.87 | 0.85
6 | CC(=O)Nc1ccc(OC(C)=O)cc1 [compound 68, DIACETAMATE] | 1.08 | 0.76 | 0.98 | 0.86 | 0.97 | 0.86
7 | C[C@H](CS)C(=O)N1CCC[C@H]1C(=O)O [compound 57, CAPTOPRIL] | 1.09 | 0.94 | 0.91 | 0.87 | 0.86 | 0.91
8 | CC(C)[N+](C)(CCC(C(N)=O)(c1ccccc1)c1ccccc1)C(C)C [compound 19, ISOPROPAMIDE] | 1.09 | 1.24 | 0.84 | 0.88 | 0.95 | 0.74
9 | COc1cccc([C@@]2(O)CCCC[C@@H]2CN(C)C)c1 [compound 99, TRAMADOL] | 1.17 | 0.93 | 1.04 | 0.98 | 1.02 | 1.11
10 | C=CC1=C(C(=O)O)N2C(=O)[C@@H](NC(=O)/C(=N\O)c3csc(N)n3)[C@H]2SC1 [compound 63] | 0.95 | 0.87 | 0.82 | 0.79 | 0.9 | 1.01
11 | C[C@H](CCC(=O)O)[C@H]1CC[C@H]2[C@@H]3C(=O)C[C@@H]4CC(=O)CC[C@]4(C)[C@H]3CC(=O)[C@]12C [compound 103, DEHYDROCHOLIC ACID] | 1.09 | 0.99 | 0.75 | 0.95 | 1.01 | 0.78
12 | CCCCCCCCCCCCCCCCCCCCCCO [compound 111, DOCOSANOL] | 1.03 | 0.9 | 0.79 | 0.86 | 0.83 | 0.83
13 | CN1C(=O)CCS(=O)(=O)C1c1ccc(Cl)cc1 (stereo not drawn) [compound 128, CHLORMEZANONE] | 1.05 | 0.78 | 0.85 | 0.86 | 0.85 | 0.72
14 | O=c1oc2cc(O)ccc2s1 [compound 92, TIOXOLONE] | 0.76 | 0.83 | 0.76 | 0.55 | 0.67 | 0.63
15 | CC[N+]1(C)CCCC(OC(=O)C(O)(c2ccccc2)c2ccccc2)C1 (stereo not drawn) [compound 42, PIPENZOLATE] | 1.3 | 1.04 | 1.11 | 1.09 | 1.12 | 1.27
16 | O=c1c2ccccc2[se]n1-c1ccccc1 [compound 45, EBSELEN] | 1.2 | 1.04 | 1.17 | 1 | 1.16 | 1.35
17 | Nc1ccc(S(=O)(=O)c2ccc(N)cc2)cc1 [compound 120, DAPSONE] | 1.06 | 0.84 | 0.74 | 0.83 | 0.8 | 0.6

Row | SMILES | Aβ38 (Aβ38) | Ratio Aβ42/40 (Aβ42/40 ratio) | sAPPα (sAPPα) | Aβ42 (Aβ42) | Aβ43 (Aβ43) | sAPPβ (sAPPβ)
18 | O=S(=O)(O)c1cc(I)c(O)c2ncccc12 [compound 35, CHINIOFON] | 1.05 | 0.86 | 0.71 | 0.83 | 0.79 | 0.6
19 | Cc1cc2cc3c(C)cc(=O)oc3c(C)c2o1 [compound 91, TRIOXSALEN] | 0.97 | 0.95 | 0.82 | 0.84 | 1.01 | 1.02
20 | CN1C(=O)CC[C@H]1c1cccnc1 [compound 10, COTININE] | 1.08 | 0.94 | 0.81 | 0.87 | 0.87 | 0.81
21 | O=C(NC(Cc1cc(=O)[nH]c2ccccc12)C(=O)O)c1ccc(Cl)cc1 (stereo not drawn) [compound 71, REBAMIPIDE] | 0.97 | 0.85 | 0.8 | 0.79 | 0.78 | 0.66
22 | Cn1c(=O)c2[nH]c(Cl)nc2n(C)c1=O [compound 124, 8-chlorotheophylline] | 1.06 | 1.01 | 0.97 | 0.98 | 0.97 | 1.02
23 | CCCCCCCCCCCCCCCC[N+](C)(C)C [compound 113, CETRIMONIUM] | 0.56 | 0.74 | 0.76 | 0.71 | 0.56 | 0.59
24 | CC(C)(Sc1cc(C(C)(C)C)c(O)c(C(C)(C)C)c1)Sc1cc(C(C)(C)C)c(O)c(C(C)(C)C)c1 [compound 96, PROBUCOL] | 0.75 | 0.7 | 1 | 0.6 | 0.65 | 1.07
25 | CCc1cccc2c3c([nH]c12)C(CC)(CC(=O)O)OCC3 (stereo not drawn) [compound 26, ETODOLAC] | 1.11 | 1.13 | 0.99 | 0.99 | 1.55 | 0.98
26 | CC(C)(C)NCC(O)c1cc(Cl)c(N)c(Cl)c1 (stereo not drawn) [compound 85, CLENBUTEROL] | 1.17 | 0.85 | 0.86 | 0.88 | 0.94 | 0.84
27 | CN1CCN(C(c2ccccc2)c2ccccc2)CC1 [compound 12, CYCLIZINE] | 1.23 | 0.95 | 1.03 | 1.04 | 1.06 | 1.3
28 | Oc1ccc(OCc2ccccc2)cc1 [compound 23, MONOBENZONE] | 1.05 | 0.91 | 0.74 | 0.82 | 0.89 | 0.56
29 | CCOc1ccc(NC(=O)CC(C)O)cc1 (stereo not drawn) [compound 70, BUCETIN] | 1.02 | 0.88 | 0.75 | 0.82 | 0.85 | 0.75
30 | NC(=O)NC1NC(=O)NC1=O (stereo not drawn) [compound 116, ALLANTOIN] | 1.07 | 0.96 | 1.05 | 0.88 | 1.13 | 0.93
31 | Cc1cccc(C(=O)O)c1O [compound 67, HYDROXYTOLUIC ACID] | 0.92 | 0.86 | 0.83 | 0.79 | 0.77 | 0.66
32 | COc1ccc(CCN(C)CCCC(C#N)(c2ccc(OC)c(OC)c2)C(C)C)cc1OC (stereo not drawn) [compound 75] | 0.89 | 0.91 | 0.81 | 0.74 | 0.75 | 0.71
33 | CC1(C)C(C=C(Cl)Cl)C1C(=O)OC(C#N)c1cccc(Oc2ccccc2)c1 (stereo not drawn) [compound 38, CYPERMETHRIN] | 0.97 | 0.87 | 0.85 | 0.83 | 0.95 | 0.88
34 | c1ccc2c(c1)OCC(C1=NCCN1)O2 (stereo not drawn) [compound 43, IDAZOXAN] | 1.03 | 0.99 | 0.84 | 0.93 | 0.97 | 0.81
